These results are taken from paper PMC6155272, “Chroman-4-One Derivatives Targeting Pteridine Reductase 1 and Showing Anti-Parasitic Activity” (Molecules : A Journal of Synthetic Chemistry and Natural …, 2017).

As usually defined, the pIC50 is −log10 of the IC50, conventionally taken in molar units. One may read the inhibition as the share of the control response that was lost under treatment.

pIC50: −log10 of the molar value.

One series has as its target T1, CYP2D6 (Homo sapiens, UniProt P10635).
T1 construct: purchased Promega; host or cells: baculovirus-infected insect cells
The experiment in a line: Cytochrome P450 2D6 assay (P450-Glo). It is filed as in vitro ADME. To be noted: for inhibition at 10 µM: human. An excerpt:
These assays made use of the PromegaP450-Glo™ (Madison, AL, USA) assay platform. Each CYP450 assay includes microsomal preparations of cytochromes from baculovirus-infected insect cells.

The target in the next series is T2, Aurora B kinase (Homo sapiens, UniProt Q96GD4).
T2 construct: purchased Promega
Put plainly: Aurora B kinase assay (ADP-Glo). It is filed as biochemical. An excerpt: This assay made use of the ADP-Glo Kinase Enzyme System from Promega (Madison, AL, USA), which is a bioluminescent assay that employs firefly luciferase in a coupled-enzyme assay format to enable detection of adenosine diphosphate (ADP) levels from ATPase assays.
In general terms: ADP-Glo turns the ADP formed in a reaction into a luminescent signal.

Series [1] has as its target T3, Leishmania major pteridine reductase 1 (LmPTR1) (Leishmania major, UniProt Q01782).
T3 construct: made in house
T3 sequence (Q01782 1-288): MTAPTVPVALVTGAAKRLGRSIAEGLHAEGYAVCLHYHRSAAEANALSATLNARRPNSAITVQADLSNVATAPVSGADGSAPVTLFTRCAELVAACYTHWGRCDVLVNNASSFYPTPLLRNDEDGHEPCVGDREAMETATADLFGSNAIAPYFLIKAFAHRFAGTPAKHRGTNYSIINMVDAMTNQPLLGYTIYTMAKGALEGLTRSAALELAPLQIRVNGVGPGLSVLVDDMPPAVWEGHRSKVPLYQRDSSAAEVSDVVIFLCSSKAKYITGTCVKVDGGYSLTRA
The experiment in a line: LmPTR1 enzyme reporter assay (cytochrome-c reduction, 550 nm). It counts as biochemical. To be noted: for pIC50: compounds 1–3, SD agreed to ±10%; for inhibition at 50 µM: read-out: % Inhibition LmPTR1 (50 μM). How it is done:
(§1) TbPTR1 and LmPTR1 were purified as reported in literature. The enzyme kinetic profile of each selected protein was characterized by a spectrophotometric assay. The experimental assay consists of enzyme kinetic reaction monitoring at 340 nm for a total time of 180 s. The enzyme kinetic activity was measured at steady-state concentration of 7,8-dihydro-L-biopterin (H2B) and NADPH substrates equal to 50 and 120 µM and varying the enzyme concentration in the 0.001–0.006 µM and 0.005–0.010–0.015–0.020–0.025–0.030 µM range for Lm- and TbPTR1, respectively. The resulting kcat values were equal to 0.68 (s^−1) and 7.2 (s^−1) for Tb- and LmPTR1, respectively. For both TbPTR1 and LmPTR1, the Km value evaluation assay for H2B- and NADPH-substrates was performed in the 0.3-0.6–0.9–1.2–2.4–4.8 µM and 3.0–6.0–12.0–40.0–90.0–190.0 µM concentrations range, respectively.
(§2) Compounds 1A–3A were evaluated as reported in our previous paper. The novel synthesized compounds 1–3 were tested towards TbPTR1 and LmPTR1 using the in vitro TbPTR1/LmPTR1 enzyme reporter assay. The experimental procedure consists of monitoring the non-enzymatic reduction reaction of cytochrome-c at 550 nm, related to the reduction reaction of H2B to tetrahydrobiopterin (H4B) by using NADPH as the cofactor. TbPTR1 and LmPTR1 enzyme activity was assayed in a buffer containing 20 mM sodium citrate (pH 6.0) in a final experimental volume equal to 600 µL. The final reaction mixture contained different substrates added in the following order: TbPTR1/LmPTR1 (0.018 µM/0.002 µM) in 20 mM Tris-HCl, glycerol 10% (v/v), pH 7.5; H2B at a final concentration equal to 0.3 µM; cytochrome-c (80 µM); Milli-Q water to a final volume of 600 µL and NADPH to a final concentration of 500 µM. Before the addition of NADPH, the reaction mixture was incubated for 10 min at 30 °C and 80 RPM. To allow the starting of the reaction, NADPH was added and the enzyme reaction was detected for a total time of 10 min at 30 °C, 550 nm. The inhibition profile characterization of compounds 1–3 was performed with a DU-640 spectrophotometer (Beckman Coulter, Brea, CA, USA). Each compound was assayed in duplicate against Tb/LmPTR1 target enzymes in the 0–10–25–50–80–150 µM concentrations range. At the different concentration values, the compounds were added to the reaction mixture (enzyme, H2B, cytochrome-c in 20 mM sodium citrate buffer and Milli-Q water) and incubated for 10 min at 30 °C, 80 RPM. The reaction was initiated by the addition of NADPH (500 µM) and monitored for 10 min at 30 °C, 550 nm. The absorbance values were processed by software analysis and transformed into the corresponding slopes. The percentages of inhibition and the IC50 values were determined.
A general note: In a reporter assay the amount or activity of a reporter protein is the signal.

The target of the next series is T4, hERG channel (Homo sapiens, UniProt Q12809).
T4 construct: purchased Invitrogen
Put plainly: hERG fluorescence polarisation assay (Predictor). It is filed as binding. The note with it: for inhibition at 10 µM: human. An excerpt:
The assay made use of Invitrogen’s Predictor™ hERG Fluorescence Polarisation Assay. This uses a membrane fraction containing hERG channel (Predictor™ hERG Membrane) and a high-affinity red fluorescent hERG channel ligand, or “tracer” (Predictor™ hERG Tracer Red), whose displacement by test compounds can be determined in a homogenous, Fluorescence Polarisation (FP)-based format.

Series [2] has as its target T5, Trypanosoma brucei pteridine reductase 1 (TbPTR1) (Trypanosoma brucei brucei, UniProt O76290).
T5 construct: made in house
T5 sequence (O76290 1-268): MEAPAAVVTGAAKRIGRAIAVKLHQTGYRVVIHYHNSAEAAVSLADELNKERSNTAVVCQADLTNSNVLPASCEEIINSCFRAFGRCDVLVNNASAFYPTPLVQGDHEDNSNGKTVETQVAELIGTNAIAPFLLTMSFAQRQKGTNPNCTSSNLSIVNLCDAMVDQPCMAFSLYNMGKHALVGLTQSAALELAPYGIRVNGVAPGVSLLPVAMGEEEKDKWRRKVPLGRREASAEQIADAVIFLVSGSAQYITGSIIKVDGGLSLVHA
The experiment in a line: TbPTR1 enzyme reporter assay (cytochrome-c reduction, 550 nm). It counts as biochemical. To be noted: for pIC50: compounds 1–3, SD agreed to ±10%; for inhibition at 50 µM: read-out: % Inhibition TbPTR1 (50 μM), 50 μM. How it is done: as §1, §2

Series [3] relates to 786-O (renal carcinoma) cell line. The experiment in a line: Mitochondrial toxicity (MitoTracker Red CMXRos uptake, high content imaging). It counts as cell-based. Further details: key to % Mitochondrial toxicity: NI: no inhibition. The note with it: for % Mitochondrial toxicity: 10 µM, 100% = mitotoxic, 0% = not mitotoxic; for pIC50: Homo sapiens, 786-0, read-out: IC50 Mitochondria. How it is done: This made use of MitoTracker® Red chloromethyl-X-rosamine (CMXRos) uptake and High Content Imaging to monitor compound mediated mitochondrial toxicity in the 786-O (renal carcinoma) cell line. Cells were maintained using Roswell Park Memorial Institute-1640 (RPMI-1640) medium from Capricorn Scientific GmbH, Ebsdorfergrund, Germany containing 2 mM glutamine, FBS (10% v/v), streptomycin (100 μg/mL) and penicillin G (100 U/mL).

T2 sequence (Q96GD4 whole entry): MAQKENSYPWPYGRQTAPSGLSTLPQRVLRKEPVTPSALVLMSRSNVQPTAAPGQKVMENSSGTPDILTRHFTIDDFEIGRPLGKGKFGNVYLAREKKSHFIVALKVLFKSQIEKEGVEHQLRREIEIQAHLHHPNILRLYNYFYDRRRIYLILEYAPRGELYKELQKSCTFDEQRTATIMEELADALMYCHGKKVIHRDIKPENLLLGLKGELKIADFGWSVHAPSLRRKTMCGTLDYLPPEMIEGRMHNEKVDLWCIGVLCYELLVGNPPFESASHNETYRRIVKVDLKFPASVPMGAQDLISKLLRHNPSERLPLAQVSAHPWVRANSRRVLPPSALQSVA
T1 sequence (P10635 whole entry): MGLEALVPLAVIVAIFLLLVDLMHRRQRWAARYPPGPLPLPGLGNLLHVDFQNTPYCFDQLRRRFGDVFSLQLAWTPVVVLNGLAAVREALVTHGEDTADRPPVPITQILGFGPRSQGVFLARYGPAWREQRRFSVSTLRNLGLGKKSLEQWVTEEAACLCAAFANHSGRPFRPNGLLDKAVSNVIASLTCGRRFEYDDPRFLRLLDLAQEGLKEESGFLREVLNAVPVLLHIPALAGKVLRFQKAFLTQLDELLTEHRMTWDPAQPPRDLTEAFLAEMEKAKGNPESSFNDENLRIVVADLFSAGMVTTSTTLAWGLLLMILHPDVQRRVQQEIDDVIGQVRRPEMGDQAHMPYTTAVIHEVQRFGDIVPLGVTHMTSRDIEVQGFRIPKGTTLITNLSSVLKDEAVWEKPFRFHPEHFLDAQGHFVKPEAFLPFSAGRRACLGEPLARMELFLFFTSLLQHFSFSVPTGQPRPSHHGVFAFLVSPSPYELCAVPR
T4 sequence (Q12809 whole entry): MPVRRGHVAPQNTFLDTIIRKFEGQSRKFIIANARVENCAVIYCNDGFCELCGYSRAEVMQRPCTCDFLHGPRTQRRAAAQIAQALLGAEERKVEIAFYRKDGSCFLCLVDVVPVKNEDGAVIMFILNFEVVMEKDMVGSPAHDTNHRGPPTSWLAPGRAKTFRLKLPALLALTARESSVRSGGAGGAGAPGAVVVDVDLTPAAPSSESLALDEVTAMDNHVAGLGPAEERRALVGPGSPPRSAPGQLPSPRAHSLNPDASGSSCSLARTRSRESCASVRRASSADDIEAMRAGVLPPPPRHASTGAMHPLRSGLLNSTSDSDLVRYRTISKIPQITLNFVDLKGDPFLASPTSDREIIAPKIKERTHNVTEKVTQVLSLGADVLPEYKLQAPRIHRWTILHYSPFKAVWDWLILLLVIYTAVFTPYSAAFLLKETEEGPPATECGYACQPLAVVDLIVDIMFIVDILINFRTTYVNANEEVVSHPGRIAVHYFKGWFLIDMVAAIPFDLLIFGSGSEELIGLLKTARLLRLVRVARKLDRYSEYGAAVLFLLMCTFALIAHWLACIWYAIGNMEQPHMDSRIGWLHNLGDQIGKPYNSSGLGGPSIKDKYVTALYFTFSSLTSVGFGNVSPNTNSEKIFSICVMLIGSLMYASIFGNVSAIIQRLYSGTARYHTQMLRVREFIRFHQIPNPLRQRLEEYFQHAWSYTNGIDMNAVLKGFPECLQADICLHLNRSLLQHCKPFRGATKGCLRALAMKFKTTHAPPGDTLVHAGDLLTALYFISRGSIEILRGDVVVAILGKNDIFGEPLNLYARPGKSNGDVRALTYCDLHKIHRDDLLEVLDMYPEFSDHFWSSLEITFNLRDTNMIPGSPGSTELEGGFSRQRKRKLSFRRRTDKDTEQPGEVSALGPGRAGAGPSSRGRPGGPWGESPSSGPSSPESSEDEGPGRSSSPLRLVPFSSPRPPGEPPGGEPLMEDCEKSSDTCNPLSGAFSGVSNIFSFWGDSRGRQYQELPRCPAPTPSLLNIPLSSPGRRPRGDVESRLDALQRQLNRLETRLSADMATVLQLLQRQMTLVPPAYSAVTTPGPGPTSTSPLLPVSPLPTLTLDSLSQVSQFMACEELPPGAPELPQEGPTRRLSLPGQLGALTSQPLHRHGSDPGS

As for `O=C1CC(c2ccc(O)cc2)Oc2ccc(O)cc21` (stereo not shown) [Compound 2], the pIC50 was 4.03 at CYP2D6; 4.46 in series [1]; under 4.00 on hERG channel; 3.88 in series [2]; under 4.00 in series [3]. In addition, the inhibition at 10 µM is under 15% against CYP2D6, under 15% on Aurora B kinase and 14% on hERG channel. Besides, the inhibition at 50 µM in series [1] came to 56%; in series [2] (compounds 1–3 and control) it was 17.7%. The “% Mitochondrial toxicity” value in series [3] is “NI”.

With `O=C1CC(c2ccc(O)c(O)c2)Oc2ccc(O)cc21` (stereo not shown) [Compound 3], the pIC50 on CYP2D6 was under 4.00; in series [1], 4.44; on hERG channel it was 4.19; in series [2], 4.09; in series [3], under 4.00. Moreover, the inhibition at 10 µM at CYP2D6 was under 15%; at Aurora B kinase, under 15%; on hERG channel, 20%. In addition, the inhibition at 50 µM was determined as 69% in series [1]; 34.6% in series [2] (compounds 1–3 and control). Also, the “% Mitochondrial toxicity” value in series [3] is “NI”.

`O=C1CC(c2cccc(O)c2)Oc2ccc(O)cc21` (stereo not shown) [Compound 1]: the pIC50 against CYP2D6 is 4.07; in series [1] it was 4.24; at hERG channel, under 4.00; in series [2], 4.51; in series [3] it was under 4.00. Besides, the inhibition at 10 µM against CYP2D6 is under 15%; against Aurora B kinase, under 15%; at hERG channel, 7%. In addition, the inhibition at 50 µM in series [1] is 50.4%; in series [2] (compounds 1–3 and control) it was 81.3%. Also, in series [2] (50 μM, compounds 1–3 and control), the “% Inhibition TbPTR1 (50 μM)” value amounted to 81%. Also, the “% Mitochondrial toxicity” value in series [3] is reported as 6%.
